Structures are written as SMILES. In brackets after ≈: the same amount, converted by molar mass. Bounds are passed on as bounds.

Our source for the MIC values is ChEMBL document CHEMBL1944562, “Design, synthesis of some new (2-aminothiazol-4-yl)methylester derivatives as possible antimicrobial and antitubercular agents” (2012).

The subject of the assay is Mycobacterium tuberculosis. In words: Antitubercular activity against Multidrug-resistant Mycobacterium tuberculosis after 7 days by resazurin assay. Format: functional. The conditions noted are these: 168 h.
On to `N#CCCc1cccc(C(=O)OCc2csc(N)n2)c1`, for which the minimum inhibitory concentration (MIC) is 6.25 µg/mL (≈ 21.8 µM).

`Nc1nc(COC(=O)c2cccc([N+](=O)[O-])c2Cl)cs1` displayed a minimal inhibitory concentration (MIC) of 6.25 µg/mL (≈ 19.9 µM).

Consider `N#Cc1ccccc1C(=O)OCc1csc(N)n1`, for which the minimum inhibitory concentration (MIC) is more than 50 µg/mL.

In turn, `Nc1nc(COC(=O)c2cc(F)cc(C(F)(F)F)c2)cs1` had an MIC of more than 50 µg/mL.

Consider `Nc1nc(COC(=O)C2(c3ccc(Cl)cc3)CC2)cs1`, for which the MIC is more than 50 µg/mL.

On to `Nc1nc(COC(=O)Cc2cccc(C(F)(F)F)c2)cs1`, for which the minimal inhibitory concentration (MIC) came out at 6.25 µg/mL (≈ 19.8 µM).

Molecule `Nc1nc(COC(=O)c2c(Cl)cc(Cl)cc2Cl)cs1` returned a minimum inhibitory concentration (MIC) of more than 50 µg/mL.

In turn, `NNC(=O)c1ccncc1` [ISONIAZID] returned an MIC of 12.5 µg/mL (≈ 91.1 µM).

Turning to `Nc1nc(COC(=O)Cc2ccccc2OC(F)(F)F)cs1`, the MIC was more than 50 µg/mL.

On to `Nc1nc(COC(=O)c2c(F)cccc2Cl)cs1`, for which 6.25 µg/mL (≈ 21.8 µM) was the least that counted as inhibitory (MIC).

`Nc1nc(COC(=O)c2ccc(Br)cc2)cs1` yielded an MIC of 2.5 µg/mL (≈ 7.98 µM).

Take `N#Cc1cccc(C(=O)OCc2csc(N)n2)n1`: the minimum inhibitory concentration (MIC) is more than 50 µg/mL.

The molecule `Nc1nc(COC(=O)c2ccccc2[N+](=O)[O-])cs1` had a minimal inhibitory concentration (MIC) of 12.5 µg/mL (≈ 44.8 µM).

The molecule `Nc1nc(COC(=O)c2cccs2)cs1` registered an MIC of more than 50 µg/mL.

Molecule `Nc1nc(COC(=O)c2c(F)cc(F)cc2F)cs1` gave a minimal inhibitory concentration (MIC) of 25 µg/mL (≈ 86.7 µM).

`Nc1nc(COC(=O)c2ccc([N+](=O)[O-])cc2)cs1` displayed an MIC of 1.25 µg/mL (≈ 4.48 µM).

Regarding `Nc1nc(COC(=O)c2ccc3ccccc3c2)cs1`, the MIC was more than 50 µg/mL.

`CO[C@H]1/C=C/O[C@@]2(C)Oc3c(C)c(O)c4c(O)c(c(/C=N/N5CCN(C)CC5)c(O)c4c3C2=O)NC(=O)/C(C)=C\C=C\[C@H](C)[C@H](O)[C@@H](C)[C@@H](O)[C@@H](C)[C@H](OC(C)=O)[C@@H]1C` [RIFAMPIN] registered an MIC of 25 µg/mL (≈ 30.4 µM).
